Experimental data reported in patent publication US20130190314A1, “DERIVATIVES OF 6-CYCLOAMINO-2-THIENYL-3-(PYRIDIN-4-YL)IMIDAZO[1,2-b]-PYRIDAZINE AND 6-CYCLOAMINO-2-FURANYL-3-(PYRIDIN-4-YL)IMIDAZO[1,2-b]-PYRIDAZINE, PREPARATION AND THERAPEUTIC USE THEREOF” (priority 2008, published 2013).

Legend:
[1] = system: Mper1-luc Rat-1 (P2C4) fibroblasts; experiment: Circadian cell assay: mPer1-promoter luciferase reporter, period prolongation; format: cell-based; details: effective concentration that induced a 1-hour prolongation of the circadian period
Protocol: Mper1-luc Rat-1 (P2C4) fibroblast cultures were prepared by dividing the cultures every 3-4 days (approximately 10-20% of confluence) on 150 cm^2 degassed polystyrene tissue culture flasks (Falcon® #35-5001) and maintained in growth medium [EMEM (Cellgro #10-010-CV); 10% foetal bovine serum (FBS; Gibco #16000-044); and 50 I.U./ml of penicillin-streptomycin (Cellgro #30-001-CI)] at 37° C. and under 5% CO2.
Cells obtained from Rat-1 fibroblast cultures at 30-50% of confluence as described above were co-transfected with vectors containing the selectable marker for zeocin resistance for a stable transfection and a luciferase reporter gene controlled by the mPer-1 promoter. After 24 to 48 hours, the cultures were divided on 96-well plates and maintained in growth medium supplemented with 50-100 μg/ml of zeocin (Invitrogen® #45-0430) for 10-14 days. The zeocin-resistant stable transfectants were evaluated for the expression of the reporter gene by adding 100 μM luciferin (Promega® #E1603®) to the growth medium and by assaying the luciferase activity on a TopCount® scintillation counter (Packard Model #C384V00). The Rat-1 cell clones expressing both zeocin resistance and luciferase activity controlled by mPer1 were serum-shock synchronized with 50% horse serum [HS (Gibco® #16050-122)] and the activity of the circadian reporter was evaluated. The P2C4 clone of Mper1-luc Rat-1 fibroblasts was selected to test the compound.
Mper1-luc Rat-1 (P2C4) fibroblasts at 40-50% of confluence, obtained according to the protocol described above, were plated out onto 96-well opaque tissue culture plates (Perkin Elmer® #6005680). The cultures are maintained in growth medium supplemented with 100 μg/mL of zeocin (Invitrogen #45-0430) until they have reached 100% of confluence (48-72 h). The cultures were then synchronized with 100 μl of synchronization medium [EMEM (Cellgro #10-010-CV); 100 I.U./ml of penicillin-streptomycin (Cellgro #30-001-C1); HS at 50% (Gibco #16050-122)] for 2 hours at 37° C. and under 5% CO2. After synchronization, the cultures were rinsed with 100 μl of EMEM (Cellgro #10-010-CV) for 10 minutes at ambient temperature. After rinsing, the medium was replaced with 300 μl of CO2 independent medium [CO2I (Gibco #18045-088); 2 mM L-glutamine (Cellgro #25-005-C1); 100 I.U./ml of penicillin-streptomycin (Cellgro #30-001-C1); 100 μM luciferin (Promega #E 1603)]. […]
The period analysis was performed either by determining the interval between the relative light emission minima over several days or by Fourier transform. […] The data were analysed by adjusting a hyperbolic curve to the data expressed as change of period (Y-axis) as a function of the concentration of the test compound (X-axis) in the XLfit™ software, and the CE Delta (t+1 h) was interpolated from this curve.

| melting point [°C] | SMILES | CE Delta (t + 1 h) [1] [nM] |
| --- | --- | --- |
|  | Cc1ccc(-c2nc3ccc(N4CCNCC4)nn3c2-c2ccncc2)s1 [Compound 10, 2-(5-methylthien-2-yl)-6-(piperazin-1-yl)-3-(pyridin-4-yl)imidazo[1,2-b]pyridazine] | 360 |
| 216 to 218 | OCCN1CCN(c2ccc3nc(-c4ccc(Cl)s4)c(-c4ccncc4)n3n2)CC1 [Compound 14, 2-{4-[2-(5-chlorothien-2-yl)-3-(pyridin-4-yl)imidazo[1,2-b]pyridazin-6-yl](piperazin-1-yl)}ethanol] | 60 to 117 |
